Results on three compounds are retold here after patent publication US11584707B2, “Non-coordinating anion type activators containing cation having aryldiamine groups and uses thereof” (ExxonMobil Chemical Patents Inc., priority 2019, dated 2023).

Assay [1] in a line: Ethylene-octene copolymerization (RUN A) in parallel pressure reactor. Particulars: catalyst = 20 nmol, activator = 22 nmol, 1-octene = 100 μL, isohexane 5 mL, tri(n-octyl)aluminum = 500 nmol, T = 100° C., P = 100 PSI. The protocol:
(§1) Unless stated otherwise, solutions of the metal complexes and activators were prepared in a drybox using toluene or methylcyclohexane. Concentrations were typically 0.2 mmol/L. Tri-n-octylaluminum (TNOAL, neat, AkzoNobel) was typically used as a scavenger. Concentration of the TNOAL solution in toluene was from 0.5 to 2 mmol/L.
(§2) Polymerizations were carried out in a parallel pressure reactor, as generally described in U.S. Pat. Nos. 6,306,658; 6,455,316; 6,489,168; WO 2000/009255; and Murphy, V. et al. (2003) “A Fully Integrated High-Throughput Screening Methodology for the Discovery of New Polyolefin Catalysts: Discovery of a New Class of High Temperature Single-Site Group (IV) Copolymerization Catalysts,” J. Am. Chem. Soc., v.125, pp. 4306-4317, each of which is incorporated by reference. The experiments were conducted in an inert atmosphere (N2) drybox using autoclaves equipped with an external heater for temperature control, glass inserts (internal volume of reactor=23.5 mL for C2 and C2/C8; 22.5 mL for C3 runs), septum inlets, regulated supply of nitrogen, ethylene and propylene, and equipped with disposable PEEK mechanical stirrers (800 RPM). The autoclaves were prepared by purging with dry nitrogen at 110° C. or 115° C. for 5 hours and then at 25° C. for 5 hours. Although the specific quantities, temperatures, solvents, reactants, reactant ratios, pressures, and other variables are frequently changed from one polymerization run to the next, the following describes a typical polymerization performed in a parallel pressure reactor.
RUN A: Ethylene-octene copolymerization (EO). A series of ethylene-octene polymerizations were performed in the parallel pressure reactor according to the procedure described above. In these studies rac-dimethylsilyl-bis(indenyl)hafnium dimethyl (MCN-1) was used along with ammonium borate activators. […] When sufficient polymer yield was attained (e.g., at least ˜10 mg), the polyethylene product was analyzed by Rapid GPC, described below.

Assay [2] in a line: Ethylene homopolymerization (RUN B) in parallel pressure reactor. Particulars: catalyst = 20 nmol, activator = 22 nmol, isohexane 5 mL, tri(n-octyl)aluminum = 500 nmol, T = 100° C., P = 100 PSI. The procedure: as §1, §2
RUN B: Ethylene homopolymerization (PE). A series of ethylene polymerizations were performed in the parallel pressure reactor according to the procedure described above. In these studies rac-dimethylsilyl-bis(indenyl)hafnium dimethyl (MCN-1) was used along with ammonium borate activators. […] When sufficient polymer yield was attained (e.g., at least ˜10 mg), the polyethylene product was analyzed by Rapid GPC, described below.

“And” between values parts separate entries of the source, which are not always exact repeats. Identical values can stand only once.

As for `CCCCCCCCCCCCCCCCCCN(C)c1cccc2c([NH+](C)CCCCCCCCCCCCCCCCCC)cccc12.Fc1c(F)c(F)c([B-](c2c(F)c(F)c(F)c(F)c2F)(c2c(F)c(F)c(F)c(F)c2F)c2c(F)c(F)c(F)c(F)c2F)c(F)c1F` [DANH-BF20], the “activity” value in assay [1] was 545 kg/mmol/h and 661 kg/mmol/h and 448 kg/mmol/h and 492 kg/mmol/h; in assay [2], 406 kg/mmol/h and 410 kg/mmol/h and 442 kg/mmol/h and 454 kg/mmol/h.

With `CCCCCCCCCCCCCCCCCCN(C)c1cccc2c([NH+](C)CCCCCCCCCCCCCCCCCC)cccc12.Fc1c(F)c(F)c2c(F)c([B-](c3c(F)c(F)c4c(F)c(F)c(F)c(F)c4c3F)(c3c(F)c(F)c4c(F)c(F)c(F)c(F)c4c3F)c3c(F)c(F)c4c(F)c(F)c(F)c(F)c4c3F)c(F)c(F)c2c1F` [DANH-BF28], the “activity” value in assay [1] was 466 kg/mmol/h and 445 kg/mmol/h and 421 kg/mmol/h and 397 kg/mmol/h; in assay [2] it was 388 kg/mmol/h and 364 kg/mmol/h and 478 kg/mmol/h and 416 kg/mmol/h.

As for “N,N-Dimethylanilinium tetrakis(pentafluorophenyl)borate [DMAH-BF20, reference compound]”, the “activity” value in assay [1] is 526 kg/mmol/h and 359 kg/mmol/h and 668 kg/mmol/h and 689 kg/mmol/h; in assay [2], 366 kg/mmol/h and 380 kg/mmol/h and 516 kg/mmol/h and 454 kg/mmol/h.
